Measurements as given in patent publication US9428813B2, “DNA methylation analysis for the diagnosis, prognosis and treatment of adrenal neoplasms” (The United States of America, as Represented by the …, priority 2012, dated 2016).

System: NCI-H295R cells
Assay: Gene expression in decitabine-treated NCI-H295R adrenocortical cells
Type: cell-based
Conditions: human adrenocortical cells; including H19, S100A10, HOPX, ERBB3 and RUNX2
Method: Studies were performed on human adrenocortical cells and the effect of decitabine on gene-expression of HTN3, H19, S100A10, FAM129A, HOPX, TAC1, UCHL1, ERBB3, BEGNT5, RUNX2, GJA3, and BGN was evaluated. […] As such, these studies indicate that demethylating agents are agents capable of regulating malignant adrenocortical tumor-related molecules and can be used to treat ACC.

For `Nc1ncn([C@H]2C[C@H](O)[C@@H](CO)O2)c(=O)n1` [Decitabine, 5-azadeoxycytidine], the “Effect on expression of malignant adrenocortical tumor-related molecules” value was “significantly alter the expression”.
